Measurements as given in paper PMC7395176, “Retromer stabilization results in neuroprotection in a model of Amyotrophic Lateral Sclerosis” (Nature Communications, 2020).

Columns and labels:
[1] = tested on: Vps35, Vps26, and Vps29 mRNAs; assay: Real-time PCR of CRC genes in Neuro2a cells; type: cell-based; conditions: 10 μM, 48 h
Source text: Lumbar spinal tracts dissected from saline-perfused mice or Neuro2A cells were lysed to extract total RNAs using the RNeasy Mini Kit (Qiagen) according to the manufacturer’s recommendations, including DNase (Promega) digestion. We synthetized the cDNA using ThermoScript RT-PCR System (Invitrogen) and Random Hexamer (Invitrogen), according to the manufacturer’s instructions. The LightCycler 480 System (Roche) and LightCycler 480 SYBR Green I Master Mix (Roche) were used for real-time PCR experiments. Normalization was obtained using the housekeeping gene Histone H3:
Compound 2a stabilizes VPS35 levels in Neuro2a cells
A cycloheximide (CHX) chase assay was performed to determine the degradation rate of VPS35 in Neuro2a cells (3x10^5 cells/well). Cells were treated with vehicle or 2a (10 µM) for 24 h, and then chased with CHX (10 µg/mL) for 2, 4 and 8h.
WBs for VPS35 and β-Actin levels. Quantifications of normalized VPS35 levels (means normalized ratios ± SEM versus the time 0) are shown inpanel b (vehicle: n=10 independent wells, 2a: n=8 independent wells obtained from 3 independent experiments; control vs. 2a at 8 hours: p=0.009). c, quantitative real time PCR for Vps35, Vps26 and Vps29 mRNA (Vps35: controls n=8 independent wells; 2a: n=9 independent wells; Vps26 and Vps29: n=9 independent wells/group); data were collected from 3 independent experiments. […]

[2] = Brain uptake of compound 2a by LC-MS/MS in C57BL/6J mice; type: in vivo; conditions: C57BL6J mice, daily intraperitoneal injections 10 mg/kg; 1, 7, 15, 30 days
Description: Compounds 2a, 4a, and standard R55/1 (10 mg/Kg) were intraperitoneally injected in C57BL6J mice daily. After 1 week, mice were sacrificed, saline perfused to avoid CNS contamination by compounds in blood circulation, and SC protein extracts were assayed by WB. […] Therefore, phenyl-1,3-bis-guanylhydrazone 2a was selected as an early lead.
Quantification of compound 2a in CNS extracts of C57BL/6J mice was performed at ProMeFa facility (Proteomics and Metabolomics Facility) of San Raffaele Scientific Institute. Wild-type C57BL/6J males mice (P60) were intraperitoneally injected with compound 2a (10 mg/kg) or vehicle, daily. We sacrificed mice at the following time points: 1, 7, 15, and 30 days. Before brains collection, mice received saline perfusion. Brains were weighted (~350 mg each) and rapidly frozen at −80 °C. The extraction was performed with methanol and each biological sample was resuspended in 60 µl of LC/MS grade water and 5 µL were analyzed by LC-MS/MS using the UPLC 1290 (Agilent Technologies) coupled to the TripleTOF 5600+ mass spectrometer (SCIEX). […] Calibration curve in brain was constructed by plotting the peak area versus corresponding quantities of compound 2a (0; 0.1; 0.26; 1 nmol, run in quadruplicates, R2 = 0.9443), using MultiQuant 2.1 software (SCIEX).

[3] = tested on: CI-MPR; assay: CI-MPR fluorescence in MNs of treated G93A mice; type: in vivo; conditions: 10 mg/kg, day 100
Source text: We next asked whether increasing VPS35/26 protein levels is sufficient to increase retromer functionality. CI-MPR is unstable in VPS26-knockout cells, and we observed a substantial reduction of CI-MPR MFI levels in MNs of vehicle-treated G93A mice compared with WT litters (Fig. 6c). […] Sortilin encodes a receptor belonging to the Vps10 family involved in Frontotemporal Dementia (FTD)[45], which shares functional homologies with MPRs and is another retromer cargo[46].
(§1) Fluorescence intensity levels of VPS35, VPS26, CI-MPR, Sortilin, CTSD and Ubiquitin were calculated using NHI-Image J software (US National Institutes of Health) according to the following protocol: stacks of confocal images were used to generate the maximal projections using the Leica Application Suite X (2.0.0.14332) software and then postprocessed by NHI-Image J to crop single NeuN^+ MNs from the ventral horn of the spinal cord. We next performed background (calculated on adjacent slices only receiving secondary antibodies) subtraction for each channel, before applying the NHI-Image J mean filter (with radius 2.0 pixels) to calculate mean NeuN fluorescence levels in individual MNs. Using this approach, we established a region of interest (ROI) to gate single MNs. On this ROI, we measured mean fluoresce levels (MFI) of target proteins.

[4] = tested on: poly-ubiquitinated proteins; assay: Poly-ubiquitinated proteins in lumbar SC and MNs of treated G93A mice; type: in vivo; conditions: 10 mg/kg, day 100
Source text: Ubiquitinated inclusions accumulate in MNs from sALS and fALS patients, and in ALS mice[51]. We characterized poly-ubiquitinated proteins in lumbar SCs protein extracts by 10% denaturating PAGE. Protein extracts from Neuro2a cells treated with the proteasome inhibitor Bortezomib (BTZ), able to increase poly-ubiquitination, were used as an experimental control[52] (Fig. 7a). […] We next scored ubiquitin MFI levels in ventral horn MNs of G93A mice. […] (Fig. 7c and d). We next scored the Golgi apparatus in G93A mice by labeling lumbar sections for the cis-Golgi matrix protein GM130[54]. […] (Fig. 7e).
as §1, with “Using this approach, we established a region of interest (ROI) to gate single MNs.” left out

With `NC(N)=N/N=C/c1cccc(/C=N/N=C(N)N)c1` [compound 2a, phenyl-1,3-bis-guanylhydrazone] the “transcription levels of CRC genes (Vps35, Vps26, Vps29 mRNAs)” value [1] was “did not influence”, the “access to the CNS (brain uptake)” value [2] was “confirmed its access to the CNS” and the “CI-MPR MFI levels in MNs” value [3] was “significantly increased”. The “poly-ubiquitinated proteins in lumbar SC extracts (WB)” value [4] was “substantially reduced” and the “ubiquitin MFI levels in ventral horn MNs” value [4] was “vehicle-treated G93A MNs were higher than in compound 2a-treated G93A mice”.
